Test results taken from US20230349907A1, “BIOPROBES FOR LYSYL OXIDASES AND USES THEREOF” (Pharmaxis Ltd., priority 2020, published 2023).
Where “and” joins values, the source holds several entries; their conditions need not be identical. Equal entries are not always repeated. Structures can show the parent of a compound that is named as a salt.

Legend:
rhLOXL2 [1] = target: T1, rhLOXL2 (Homo sapiens (Human), UniProt Q9Y4K0); experiment: LOXL2 inhibition, peroxidase-coupled Amplex Red assay; format: biochemical; conditions: 30 min preincubation at 37° C.
T1 sequence (Q9Y4K0 26-774): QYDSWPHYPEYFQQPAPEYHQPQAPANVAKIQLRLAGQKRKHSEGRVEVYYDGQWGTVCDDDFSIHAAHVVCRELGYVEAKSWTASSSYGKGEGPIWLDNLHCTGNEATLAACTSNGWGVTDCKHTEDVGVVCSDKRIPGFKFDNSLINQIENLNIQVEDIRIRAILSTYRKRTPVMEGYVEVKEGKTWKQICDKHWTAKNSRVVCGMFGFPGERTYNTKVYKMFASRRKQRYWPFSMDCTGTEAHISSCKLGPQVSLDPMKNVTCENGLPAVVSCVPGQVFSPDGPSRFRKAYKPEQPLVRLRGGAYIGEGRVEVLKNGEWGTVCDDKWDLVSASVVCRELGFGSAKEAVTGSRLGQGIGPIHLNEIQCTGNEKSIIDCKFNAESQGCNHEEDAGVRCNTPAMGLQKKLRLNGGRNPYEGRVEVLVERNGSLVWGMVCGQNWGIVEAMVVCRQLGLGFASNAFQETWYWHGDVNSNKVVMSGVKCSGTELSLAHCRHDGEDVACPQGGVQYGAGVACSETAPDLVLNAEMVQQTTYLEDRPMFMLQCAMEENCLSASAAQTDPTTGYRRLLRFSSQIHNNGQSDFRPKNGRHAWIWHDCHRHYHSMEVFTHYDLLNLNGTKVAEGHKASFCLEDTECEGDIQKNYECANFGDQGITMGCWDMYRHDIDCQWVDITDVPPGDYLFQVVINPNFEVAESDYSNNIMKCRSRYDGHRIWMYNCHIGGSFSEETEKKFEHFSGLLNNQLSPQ
From the text: (§1) Method to Determine the Ability of Compounds of the Invention to Inhibit LOX and LOXL1-4 from Different Sources […] S., Trackman P. C. and Kagan H. M., Reaction of aortic lysyl oxidase with beta-aminoproprionitrile. J Biol Chem 1983; 258: 4331-4338). There are five LOX family members; these are LOX, LOXL1, LOXL2, LOXL3 and LOXL4. LOX and LOXL family members can be acquired as recombinant active proteins from commercial sources, or extracted from animal tissues like bovine aorta, tendons, pig skin; or prepared from cell cultures. The inhibitory effects of the compounds of the present invention were tested against the given LOX-LOXL preparation using a high-throughput coupled colorimetric method (Holt A. and Palcic M., A peroxidase-coupled continuous absorbance plate-reader assay for flavin monoamine oxidases, copper-containing amine oxidases and related enzymes. Nat. Protoc. 2006; 1: 2498-2505). The assay was developed using either 384 or 96 well format. […] Test compounds were dissolved in DMSO and tested in a Concentration Response Curve (CRC) with 11 data points, typically in the micromolar or nanomolar range after incubation with the enzyme for 30 min at 37° C. 25 μL of a reaction mixture containing twice the KM concentration of putrescine (Sigma Aldrich, e.g. 20 mM for LOX, or 10 mM for LOXL2 and LOXL3), 120 μM Amplex Red (Sigma Aldrich) and 1.5 U/mL horseradish peroxidase (Sigma Aldrich) prepared in 1.2 M urea, 50 mM sodium borate buffer (pH 8.2) were then added to the corresponding wells. The above volumes were doubled in the case of 96 well plates. The fluorescence (RFU) was read every 2.5 m n for 30 m u […], excitation 565 nm and emission 590 nm (Optima; BMG labtech). The slope of the kinetics for each well was calculated using MARS data analysis software (BMG labtech) and this value was used to deduce the IC50 value (Dotmatics).

rhLOXL2 [2] = target: T1, rhLOXL2; experiment: sandwich ELISA with bioprobe pre-incubated with rhLOXL2; format: binding; conditions: 400 nM bioprobe pre-incubated, 1250 ng/mL rhLOXL2, AF2639 capture, antibody C (C-AB179810) detection, FIG. 5
Method: A further aim was directed at determining whether the presence of bioprobe (Compound 1-1), pre-incubated and bound to the active site of rhLOXL2, would affect antibody binding and detection by sandwich ELISA. […] FIG. 5 depicts the absorbance values (optical density 460 nm) from the antibody/antibody assay, using two antibodies. Antibody A (AF2639) was used as the capture antibody, 1250 ng/mL rhLOXL2 was used as the antigen and antibody C (C-AB179810) was used as the detection antibody. 400 nM of Compound 1-1 was pre-incubated with rhLOXL2 before commencement of the ELISA assay.

Bovine LOX = Bovine LOX (Bos taurus (Bovine), UniProt P33072); experiment: LOX inhibition, peroxidase-coupled Amplex Red assay; format: biochemical; conditions: 30 min preincubation at 37° C.
Sequence of Bovine LOX (P33072 170-418): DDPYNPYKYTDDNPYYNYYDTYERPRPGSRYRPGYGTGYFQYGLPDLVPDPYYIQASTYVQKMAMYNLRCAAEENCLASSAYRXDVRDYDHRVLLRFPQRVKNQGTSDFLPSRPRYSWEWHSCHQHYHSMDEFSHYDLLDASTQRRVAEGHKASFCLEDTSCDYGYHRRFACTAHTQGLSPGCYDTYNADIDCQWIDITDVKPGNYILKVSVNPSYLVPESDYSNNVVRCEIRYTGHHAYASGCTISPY
From the text: as §1

rhLOXL2 [3] = target: T1, rhLOXL2; experiment: antibody/bioprobe ELISA assay detecting rhLOXL2; format: binding
Method: Antibody A (AF2639) was conjugated to beads, bound to high protein binding plates (microlon 600, high binding, flat bottom, Greiner 655061 using coating buffer containing 71.5 mM NaHCO3 and 28.5 mM Na2CO3) overnight at 4° C. After washing with a mild detergent (0.05% Tween 20) to remove excess and unbound antibody, the beads or plates were then incubated with blocking solution (1-5% BSA/TBS) to block any free binding spots, for 1 hour at room temperature. The blocking solution was then removed and rhLOXL2 was added and incubated for 3 hours at 4° C. After washing (with a mild detergent) to remove excess/unbound protein, bioprobe Compound 1-1 (which is conjugated with biotin) was incubated for 2 hours at 37° C. at a concentration between IC50 to IC100 of the rhLOXL2 (as measured in a standard biochemical assay eg Amplex Red/Resorufin). After a washing step (with a mild detergent) streptavidin conjugated to horseradish peroxidase or an appropriate label was added and incubation was continued for 1 hour at room temperature. After an additional washing step (with mild TBS/tween detergent), a detection substrate (resorufin or TMB) was added followed by the fluorescence read at Excitation: 565 nm/Emmission: 590 nm or maximum absorbance at 450 nm. A suitable capture antibody will allow for bioprobe binding whilst providing a large signal.
FIG. 3 depicts the absorbance values (optical density 450 nm) from the antibody/bioprobe assay, using one antibody and Compound 1-1 (FIG. 3A) AF2639 was used as the capture antibody, rhLOXL2 was used as the antigen and 80 nM of Compound 1-1 was used as the detection. FIG. 3B) Fitzgerald 70R-12876 was used as the capture antibody, rhLOXL2 is used as the antigen and 80 nM of Compound 1-1 is used as the detection.
When the bioprobe contains two biotin moieties, the signal is more robust than a single biotin counterpart. […] AF2639 was used as the capture, rhLOXL2 was used as the antigen and 78 nM of Compound 1-12 was used for detection.

LOX in human serum = LOX in human serum (Homo sapiens (Human), UniProt P28300); experiment: LOX Bioprobe Activity Assay (Simoa); format: biochemical
Sequence of LOX in human serum (P28300 169-417): as the sequence (P33072 170-418) above, with T10S, S29G, P49A, A64S, S80T, X84A, S142N, N188G, S224T, E231D counted along it
Method: The LOX Bioprobe Assay used a Simoa HD-1 analyzer and Simoa technology to run a 2-step digital immunoassay, to measure the activity of unbound LOX in human serum.
This assay used the same anti-LOX capture antibody as for the Protein Concentration Assay. The bioprobe (Compound 1-12) was diluted down to 130 μM in deionized H2O prior to being diluted in Detector Buffer. Before being loaded onto the analyzer, samples were diluted at least 6 fold in Assay Buffer (1% BSA, 0.25% Rabbit Serum, 2% PEG (20k MW), 0.55% Tween-20, 1×PBS; used to dilute samples, controls, and detector reagent). To determine the background signal, diluted samples were pre-incubated for 30 min with LOX inhibitor beta-aminoproprionitrile (BAPN).
In the LOX Bioprobe Activity 2-step immunoassay, target-antibody-coated paramagnetic beads (500k per mL) were combined with diluted sample and biotinylated detector-bioprobe ([…]) in the same incubation cuvette for 54 minutes. […]
A single-labeled target molecule results in sufficient fluorescent signal in 30 seconds to be detected and counted by the Simoa optical system. […] At higher target concentration, when most of the bead-containing wells have one or more labeled target molecules, the total fluorescence signal is proportional to the amount of target present in the sample. […]

Human LOXL3 = Human LOXL3 (Homo sapiens (Human), UniProt P58215); experiment: LOXL3 inhibition, peroxidase-coupled Amplex Red assay; format: biochemical; conditions: 30 min preincubation at 37° C.
Sequence of Human LOXL3 (P58215 26-753): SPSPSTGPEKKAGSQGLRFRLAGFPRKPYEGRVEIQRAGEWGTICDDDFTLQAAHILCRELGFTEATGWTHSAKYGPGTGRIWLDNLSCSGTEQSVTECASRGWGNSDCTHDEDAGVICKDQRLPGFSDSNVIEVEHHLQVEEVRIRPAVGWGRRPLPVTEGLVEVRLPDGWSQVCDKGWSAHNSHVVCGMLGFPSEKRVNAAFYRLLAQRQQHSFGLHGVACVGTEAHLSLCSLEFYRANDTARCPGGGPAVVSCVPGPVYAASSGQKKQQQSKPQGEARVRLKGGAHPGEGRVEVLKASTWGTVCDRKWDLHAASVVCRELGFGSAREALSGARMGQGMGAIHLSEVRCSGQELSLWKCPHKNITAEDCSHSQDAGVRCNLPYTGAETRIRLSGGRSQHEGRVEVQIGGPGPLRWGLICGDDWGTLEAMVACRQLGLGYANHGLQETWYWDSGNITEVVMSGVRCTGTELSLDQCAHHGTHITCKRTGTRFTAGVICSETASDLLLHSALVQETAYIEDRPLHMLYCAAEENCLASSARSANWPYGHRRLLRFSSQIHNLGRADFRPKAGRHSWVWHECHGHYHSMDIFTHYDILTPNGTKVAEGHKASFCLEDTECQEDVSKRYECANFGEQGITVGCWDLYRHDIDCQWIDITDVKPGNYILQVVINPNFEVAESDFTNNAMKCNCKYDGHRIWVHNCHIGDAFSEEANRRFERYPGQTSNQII
From the text: (§2) Method to Determine the Ability of Compounds of the Invention to Inhibit LOX and LOXL1-4 from Different Sources […] S., Trackman P. C. and Kagan H. M., Reaction of aortic lysyl oxidase with beta-aminoproprionitrile. J Biol Chem 1983; 258: 4331-4338). There are five LOX family members; these are LOX, LOXL1, LOXL2, LOXL3 and LOXL4. LOX and LOXL family members can be acquired as recombinant active proteins from commercial sources, or extracted from animal tissues like bovine aorta, tendons, pig skin; or prepared from cell cultures. The inhibitory effects of the compounds of the present invention were tested against the given LOX-LOXL preparation using a high-throughput coupled colorimetric method (Holt A. and Palcic M., A peroxidase-coupled continuous absorbance plate-reader assay for flavin monoamine oxidases, copper-containing amine oxidases and related enzymes. Nat. Protoc. 2006; 1: 2498-2505). The assay was developed using either 384 or 96 well format. […] The fluorescence (RFU) was read every 2.5 m n for 30 m u at a range of temperatures from 37° C. to 45° C., excitation 565 nm and emission 590 nm (Optima; BMG labtech). The slope of the kinetics for each well was calculated using MARS data analysis software (BMG labtech) and this value was used to deduce the IC50 value (Dotmatics).

Human LOXL1 = Human LOXL1 (Homo sapiens (Human), UniProt Q08397); experiment: LOXL1 inhibition, peroxidase-coupled Amplex Red assay; format: biochemical; conditions: 30 min preincubation at 37° C.
Sequence of Human LOXL1 (Q08397 96-574): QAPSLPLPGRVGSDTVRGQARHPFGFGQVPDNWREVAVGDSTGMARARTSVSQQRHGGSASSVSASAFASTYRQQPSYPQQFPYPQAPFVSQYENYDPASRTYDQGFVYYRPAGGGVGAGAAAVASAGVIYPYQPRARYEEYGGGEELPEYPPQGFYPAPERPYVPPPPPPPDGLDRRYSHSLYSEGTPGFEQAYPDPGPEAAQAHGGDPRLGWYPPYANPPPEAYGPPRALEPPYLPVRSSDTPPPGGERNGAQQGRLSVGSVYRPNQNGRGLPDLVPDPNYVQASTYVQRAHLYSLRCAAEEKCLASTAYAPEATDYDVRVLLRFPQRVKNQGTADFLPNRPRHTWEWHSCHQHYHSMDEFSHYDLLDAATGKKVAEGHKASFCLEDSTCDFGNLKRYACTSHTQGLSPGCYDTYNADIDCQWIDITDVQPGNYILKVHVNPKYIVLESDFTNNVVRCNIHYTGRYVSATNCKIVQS
From the text: as §2

Human LOXL4 = Human LOXL4 (Homo sapiens (Human), UniProt Q96JB6); experiment: LOXL4 inhibition, peroxidase-coupled Amplex Red assay; format: biochemical; conditions: 30 min preincubation at 37° C.
Sequence of Human LOXL4 (Q96JB6 25-756): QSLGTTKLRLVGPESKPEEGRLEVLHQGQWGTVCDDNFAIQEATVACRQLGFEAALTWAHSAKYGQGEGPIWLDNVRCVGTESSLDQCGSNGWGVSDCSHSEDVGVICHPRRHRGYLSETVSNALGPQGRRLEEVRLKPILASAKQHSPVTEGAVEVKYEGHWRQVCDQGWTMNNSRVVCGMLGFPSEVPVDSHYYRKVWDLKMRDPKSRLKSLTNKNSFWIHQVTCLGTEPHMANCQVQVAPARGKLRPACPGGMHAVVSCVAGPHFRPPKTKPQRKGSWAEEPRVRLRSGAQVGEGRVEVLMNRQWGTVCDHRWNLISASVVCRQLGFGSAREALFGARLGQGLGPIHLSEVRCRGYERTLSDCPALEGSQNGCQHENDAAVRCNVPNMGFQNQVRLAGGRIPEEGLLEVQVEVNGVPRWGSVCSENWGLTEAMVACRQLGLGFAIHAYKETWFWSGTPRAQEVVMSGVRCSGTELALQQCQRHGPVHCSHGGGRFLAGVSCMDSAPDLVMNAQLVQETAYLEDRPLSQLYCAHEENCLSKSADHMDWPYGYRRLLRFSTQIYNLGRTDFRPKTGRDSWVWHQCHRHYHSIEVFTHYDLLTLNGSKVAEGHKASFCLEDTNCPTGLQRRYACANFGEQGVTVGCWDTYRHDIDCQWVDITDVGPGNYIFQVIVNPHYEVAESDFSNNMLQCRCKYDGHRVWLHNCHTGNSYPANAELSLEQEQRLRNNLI
From the text: as §2

IC50 (rhLOXL2 [1]) [nM] | IC50 (Bovine LOX) [nM] | rhLOXL2 signal by bioprobe detection (optical density 450 nm) (rhLOXL2 [3]; Antibody A (AF2639) as capture antibody, 80 nM bioprobe, FIG. 3A) | rhLOXL2 detection by bioprobe (optical density 450 nm) (rhLOXL2 [3]; Antibody B (Fitzgerald 70R-12876) as capture antibody, 80 nM bioprobe, FIG. 3B) | IC50 (Human LOXL3) [nM] | IC50 (Human LOXL1) [nM] | IC50 (Human LOXL4) [nM] | signal of bioprobe with two biotin moieties versus single biotin counterpart (optical density 460 nm) (rhLOXL2 [3]; AF2639 capture, 78 nM bioprobe, FIG. 4) | Compound | rhLOXL2 detection levels in the presence or absence of bioprobe (rhLOXL2 [2]) | Average signal (LOX in human serum; human serum + CM (×100 diluted) + BAPN, bioprobe Compound 1-12) | effect of inhibitor on LOX bioprobe signal (LOX in human serum; human serum spiked with human fibroblast conditioned media) | effect of inhibitor on bioprobe rhLOXL2 signal (rhLOXL2 [3]; AF2639 capture, Compound 1-1 detection, FIG. 3A)
< 300 | > 300 | shows a specific rhLOXL2 signal | prevents the detection of rhLOXL2 |  |  |  |  | Cc1c(Cc2ccc(S(=O)(=O)N(C)C)cc2)c2cc(C(=O)N3CCN(C(=O)CCCC[C@@H]4SC[C@@H]5NC(=O)N[C@@H]54)CC3)ccc2n1C/C(F)=C/CN [Compound 1-1, 4-((1-((Z)-4-amino-2-fluorobut-2-en-1-yl)-2-methyl-5-(4-(5-((3aS,4S,6aR)-2-oxohexahydro-1H-thieno[3,4-d]imidazol-4-yl)pentanoyl)piperazine-1-carbonyl)-1H-indol-3-yl)methyl)-N,N-dimethylbenzenesulfonamide hydrochloride] | no difference in rhLOXL2 detection levels |  |  | 
 |  |  |  |  |  |  |  | N#CCCN [BAPN, β-aminopropionitrile] |  | 0.0093 and 0.0077 | significantly reduces the signal | the signal is ablated
< 300 | > 300 |  |  | > 300 | > 300 | < 300 | more robust | NC/C=C(\F)CS(=O)(=O)c1cccc(Cn2cc(-c3cc(OCCCc4cn(CCCCC[C@@H]5SC[C@@H]6NC(=O)N[C@@H]65)nn4)cc(OCCCc4cn(CCCCC[C@@H]5SC[C@@H]6NC(=O)N[C@@H]65)nn4)c3)nn2)c1 [Compound 1-12, (3aS,3a'S,4S,4'S,6aR,6a′R)-4,4′-(((((5-(1-(3-(((Z)-4-amino-2-fluorobut-2-en-1-yl)sulfonyl)benzil)-1H-1,2,3-triazol-4-yl)-1,3-phenylene)bis(oxy))bis(propane-3,1-diyl))bis(1H-1,2,3-triazole-4,1-diyl))bis(pentane-5,1-diyl))bis(tetrahydro-1H-thieno[3,4-d]imidazol-2(3H)-one) hydrochloride] |  |  |  | 
< 300 | < 300 |  |  | < 300 |  |  |  | CN(C)S(=O)(=O)c1ccc(C(OCc2ccc(-n3cc(CNC(=O)CCCC[C@@H]4SC[C@@H]5NC(=O)N[C@@H]54)nn3)cc2)c2cn(C/C(F)=C/CN)nn2)cc1 (stereo partly drawn) [Compound 1-15, N-((1-(4-(((1-((Z)-4-amino-2-fluorobut-2-en-1-yl)-1H-1,2,3-triazol-4-yl)(4-(N,N-dimethylsulfamoyl)phenyl)methoxy)methyl)phenyl)-1H-1,2,3-triazol-4-yl)methyl)-5-((3aS,4S,6aR)-2-oxohexahydro-1H-thieno[3,4-d]imidazol-4-yl)pentanamide hydrochloride] |  |  |  | 
